Measured values: patent US5260286A, “2-piperidinecarboxylic acid derivatives useful as NMDA receptor antagonists” (Japan Tobacco, Inc., priority 1992, dated 1993)
Where two headings read alike, the source gives them in different places.

Key:
[1] = Lethality of NMDA in mice; set-up: species or system male Swiss-Webster mice; settings: mouse, in vivo
Protocol: (§1) According to the method described by Ferkany et al. (1988), the test compounds were administered ip to four male Swiss-Webster mice (26-34 g) each, following 30 minutes later, 200 mg/kg of NMDA was administered to the mice each. […] Those compounds that protected three or more of the mice at any of the doses were evaluated further by determining the ED50 values using three or more doses with the eight mice per dose. The ED50 was estimated by the method of Litchfield and Wilcoxin (1949). Water-soluble compounds were dissolved in distilled water and administered in a volume of 10 mL/kg. Water-insoluble compounds were suspended in an aqueous solution of 0.5% methyl cellulose and administered in a volume of 20 mL/kg.

[2] = test system: NMDA-Induced Lethality; experiment: In vivo protection in the mouse against NMDA-induced lethality; set-up: species or system male Swiss-Webster mice; settings: ip; for ED50: Mus musculus, read-out: PD50
Protocol: as §1

[3] = test system: NMDA recognition site; settings: Lehman et al., 1988; Murphy et al., 1987; cited from earlier work
[4] = molecular target: NMDA receptor; experiment: In vitro binding assay, inhibition of [^3 H]CGS-19755 binding at the NMDA receptor site (semipurified synaptic membranes from rat forebrain); set-up: species or system Adult male Sprague-Dawley rats; settings: 10 nM [^3 H]CGS-19755, 15 minutes at 4° C., 50 mM Tris-citrate pH 7.1; read-out: Ki [^3 H]CGS19755
Protocol: The compounds of the invention were tested for their ability to inhibit [^3 H]CGS-19755 binding. Semipurified synaptic membranes were prepared according to the method of Bristow et al. (1986) with minor modifications. Adult male Sprague-Dawley rats were decapitated, and the forebrains were removed, weighed and homogenized in 20 volumes of 0.32M sucrose. The homogenate was centrifuged at 27,000×G for 15 minutes. The pellet was resuspended in 20 volumes of distilled water followed by centrifugation at 8000×G for […]. Both the supernatant and the buffy coat layer, removed with 5 mM Tris-Cl (2 mL), pH 7.8, were pooled and centrifuged at 27,000×G for 15 minutes. The supernatant was removed and the pellet was covered with a small amount of 5 mM Tris-HCl and stored at -20° C. for least 18 hours. Membranes were then washed four times in 50 mM Tris-citrate, pH 7.1, and finally resuspended in the same buffer. This suspension was used for the binding assay immediately or frozen for subsequent use.
Aliquots of membranes (800 μl) were incubated with 10 nM [^3 H]CGS-19755 (100 μl) and varying concentrations of the test compounds (100 μl) for 15 minutes at 4° C. Then a filtration assay was used. The samples were filtered over glass fiber filters using a Brandel Cell Harvester. […]
Ki values were calculated from the equation: [formula]

[5] = 30 minutes before 200 mg/kg NMDA, Litchfield and Wilcoxin

SMILES	mortality ([1]; 200 mg/kg NMDA, read-out: mice died at 200 mg/kg NMDA) [%]	LD50 ([1]; mice) [mg/kg]	ED50 ([2]; 30 minutes before 200 mg/kg NMDA, eight mice per dose, Litchfield and Wilcoxin) [mg/kg]	Confidence Limits (of PD50) [2, 5]	Slope [2, 5]	antagonists at the NMDA recognition site [3]	Ki [4] [nM]	ED50 [2] [mg/kg]
CN[C@H](CC(=O)O)C(=O)O [NMDA, N-methyl-D-aspartate]	~90	164	–	–	–	–	–	–
O=C(O)[C@H]1C[C@@H](CP(=O)(O)O)CCN1 (relative stereo) [CGS-19755, cis-4-(phosphonomethyl)-2-piperidinecarboxylicacid]	–	–	2	1.2-3.6	2.46	high-affinity antagonists	112	–
O=C(O)C1C/C(=C/P(=O)(O)O)CCN1 (centres unmarked) [E-4-(phosphonomethylidene)-2-piperidinecarboxylic acid]	–	–	–	0.5-2.2	1.96	–	590	1.1
